Laboratory results as given in US20150253328A1, “NANOMATERIAL-INDUCED CYTOTOXICITY DETECTION COMPOSITION AND KIT, AND NANOMATERIAL-INDUCED CYTOTOXICITY DETECTION METHOD” (KOREA UNIVERSITY RESEARCH AND BUSINESS FOUNDATION, priority 2011, published 2015).

Legend:
Assay type in all cases: cell-based, human
[1] = test system: Egr-1 and p-ERK proteins; assay: ROS inhibitor assay (Western blot), HEKn; settings: 10 uM/ml NAC 2 hours before ZnO, 1 hour after ZnO, FIG. 13C
Procedure: (§1) A Western blot assay was performed in the same manner as described in Example 2, except for the following differences. At 2 hours before treatment with ZnO, cultured cells were treated with 10 uM/ml of the antioxidant N-acetyl cystein (NAC), and after 2 hours, the cells were treated with 2 ml of fresh DMEM medium free of FBS and P/S. After 1 hour from the treatment with ZnO, the medium was removed, and the cells were treated with 1×PBS, scraped with a scrapper, and then transferred to a 1.5 ml tube. […] Thus, it can be seen that the expressions of the marker proteins Egr-1 and p-ERK are increased by ROS (B: HaCaT, C: HEKn). Herein, the data points indicate the β-actin-normalized mean and ERK-normalized mean of three independent experiments compared using two-way Anova (***P<0.001).

[2] = test system: Egr-1 and p-ERK proteins; assay: ROS inhibitor assay (Western blot), HaCaT; settings: 10 uM/ml NAC 2 hours before ZnO, 1 hour after ZnO, FIG. 13B
Procedure: as §1

[3] = test system: Egr-1 protein; assay: MAPK inhibitor assay (Western blot, ZnO plus MAPK inhibitor); settings: cells pre-treated with inhibitor 30 minutes before ZnO; 2 hours after ZnO
Procedure: (§2) A Western blot assay was performed in the same manner as described in Example 2, except for the following differences. At 30 minutes before treatment with ZnO, cells were treated with an MAPK (mitogen-activated proteinkinase) inhibitor (U0126: ERK inhibitor, SB600125: p38 inhibitor, SP239063: JNK inhibitor-sigma product), and after 30 minutes, the cells were treated with 2 ml of fresh DMEM medium free of FBS and P/S. After 2 hours from treatment with ZnO, the medium was removed, and the cells were treated with 1×PBS, scraped with a scrapper, and then transferred to a 1.5 ml tube.
as §2, with “from the” for “from”

SMILES | expression bands of Egr-1 protein [1] | expression bands of p-ERK protein [1] | expression bands of Egr-1 protein [2] | expression bands of p-ERK protein [2] | expression of the Egr-1 protein [3]
CC(=O)N[C@@H](CS)C(=O)O [NAC, N-acetyl cystein] | significantly decreased | significantly decreased | significantly decreased | significantly decreased | 
N#CC(=C(/N)Sc1ccccc1N)/C(C#N)=C(\N)Sc1ccccc1N [U0126] |  |  |  |  | significantly decreased
